In patent EP4321162A1 (priority 2022, dated 2024):

How the values were obtained:
SARS-CoV-2 = tested on: SARS-CoV-2; design: species or system K18-hACE2 mice; details: mouse, in vivo
Calu-3 2B4 cells = details: uninfected Calu-3 2B4 cells, 1-50 µM tested, 48 h

Row | Compound | protection levels (survival) (SARS-CoV-2) | cytotoxicity of the administered concentrations (cell viability, MTT) (Calu-3 2B4 cells)
1 | Cc1ccc(NC(=O)C2(c3ccc4c(c3)OC(F)(F)O4)CC2)nc1-c1cccc(C(=O)O)c1 [VX809, 3-[6-[[1-(2,2-difluoro-1,3-benzodioxol-5-yl)cyclopropanecarbonyl]amino]-3-methylpyridin-2-yl]benzoic acid] | 20% | non-toxic
2 | CC(C)(C)c1cc(C(C)(C)C)c(NC(=O)c2c[nH]c3ccccc3c2=O)cc1O [VX770, N-(2,4-ditert-butyl-5-hydroxyphenyl)-4-oxo-1H-quinoline-3-carboxamide] | 40% | non-toxic
